In patent US20100028395A1, “COMPOSITIONS CONTAINING N-ACETYLGLUCOSAMINE FOR USE IN DERMO-COSMETOLOGY AND AESTHETIC MEDICINE” (ROTTAPHARM S.P.A., priority 2007, published 2010):

Key:
[1] = system: Human fibroblasts, Detroit 551 ATCC CCL III; assay: Stimulation of HA synthesis in human fibroblast cultures (EIA HA assay); type: cell-based; settings: for HA(ng/well) (Diff. from baseline) / HA (%) (Diff. from baseline): 48 h; for HA (%) from NAG (consistent doses): see Table 2
From the text: The test has been conducted in two stages, i.e.: • stage A: in which the stimulation of HA expression by COMBI has been evaluated while maintaining the concentration constant and varying the reciprocal quantities of its components. The concentration used has been selected so as to enable comparison with the results derived from stage B; • stage B: in which the effect of CA on HA expression has been evaluated by varying its concentration and in comparison with doses consistent with its components. […] Human fibroblasts have been grown in suitable growth medium (Eagle's minimal essential medium) supplemented with 10% foetal calf serum (FCS), 1 mM sodium pyruvate, 2 mM glutamine, non-essential aminoacids and 50 μg/ml glutamycin. […] After 48 hours, the supernatant has been removed and used for the determination of the parameters of interest. The test has been conducted in duplicate and untreated cell cultures have been used as controls. HA has been assayed (dosed) by means of an immuno-enzymatic test using a commercially available kit (EIA, Corgenix). De novo HA synthesis has been evaluated in the culture medium following treatment with the test substances, according to the protocol provided with the test, and against the calibration curve obtained using the HA standard contained in the kit. […] • evaluation of the effects of the substances tested, at the various concentrations, on fibroblast cultures has been expressed as the absolute and percent increase or decrease of the HA expression, with respect to the corresponding control culture, after 48 hours of incubation. The percentage difference increase or decrease of the effects exerted by CA and NAG, at corresponding concentrations, have then been calculated, with evaluation of their potential significance by means of the Student's “t” test.

[2] = system: Human fibroblasts, Detroit 551 ATCC CCL III; assay: Stimulation of collagen synthesis in human fibroblast cultures (Sircol assay); type: cell-based; settings: 24 h
From the text: The scope of the test has been the evaluation and the comparison of the potential stimulation exerted by the test substances on the expression of collagen and elastin in “in vitro” cultures of skin-derived cells, such as fibroblasts. The test in question, even though conducted “in vitro”, can be considered to be predictive of the effects of use of the same substances “in vivo”. […] The samples have been dissolved directly in the culture medium. Each sample has been tested in duplicate and the experiments have been repeated twice. The parameters of interest have been determined after 24 hours on separate plates. Untreated cell cultures have been used as controls. A commercially available kit (Sircol™, biodye science) which uses the capacity of the stain Sirius Red to interact with the basic side chains of the aminoacids present in collagen itself, has been used for collagen assays. De novo collagen synthesis has been evaluated in the culture medium following treatment with the test substances, following the protocol provided with the kit, and by using the calibration curve obtained employing the collagen standard contained in turn in the kit. Evaluation of the effects of the substances tested, at the various concentrations, on fibroblast cultures, has been expressed as the absolute and percent increase or decrease of collagen and elastin expression, with respect to the corresponding control culture, after 24 hours of incubation. The percentage difference increase or decrease of the effects exerted by CA and NAG, at corresponding concentrations, have then been calculated, with consequent evaluation of their potential statistical significance by means of the test Student “t” test.

[3] = system: Human fibroblasts, Detroit 551 ATCC CCL III; assay: Stimulation of protein synthesis in human fibroblast cultures (Lowry method); type: cell-based
Method: The following have been used: • Human fibroblasts, Detroit 551 ATCC CCL III from LGC Promochem (Milan, Italy); • Human keratinocyte primary culture: HEKA, Cascade Biologics, cat. 005-5C. Test substances and concentrations
The substances and concentrations tested are those reported below (on both fibroblasts and keratinocytes): • CA: 0.13, 0.66, 1.32, and 2.64 mg/ml • NAG: 0.1, 0.5, 1.0, and 2.0 mg/ml
The method is identical to that already described for collagen and elastin with the difference that, following the addition of the test substances into the culture medium, the medium has been substituted daily for three days. Each sample has been tested in duplicate and the experiments have been repeated twice. The parameter of interest, i.e. protein synthesis, has been evaluated at 24, 48 and 72 hours on separate plates. Untreated cell cultures have been used as controls.
Protein has been assayed using the Lowry method [Lowry et al. 1951] consisting of a Biuret reduction reaction envisaging the use of Folin-Ciocalteau reagent as chromophore, with a yellow to blue colour change and spectrophotometric measurement at 750 nm [Creighton et al. 1984; Sengupta et al. 1993].
The protein content of the cultures in question has been obtained from comparison of their optical densities with a titration curve made using albumin as a protein standard.
Evaluation of the effect of the substances tested, at the various concentrations and times, on cultures of both fibroblasts and keratinocytes has been expressed in both absolute terms (expressed protein production in mg/ml) and as percentage increase or decrease with respect to control cultures.
The percentage difference increase or decrease of the effects exerted by CA and NAG, over various days and at the corresponding concentrations, have then been calculated, with evaluation of their potential statistical significance by means of the test Student “t” test.

[4] = system: hyaluronate synthetase; settings: plasma membrane fractions of human skin fibroblasts; cited from earlier work

SMILES: CC(=O)N[C@@H](C=O)[C@@H](O)[C@H](O)[C@H](O)CO [NAG, N-acetyl-2-amino-2 deoxyglucose]
- HA(ng/well) (Diff. from baseline) ([1]; NAG 0.50 mg/ml): +54 ng/well
- HA (%) (Diff. from baseline) ([1]; NAG 1.00 mg/ml): +58.98%
- HA(ng/well) (Diff. from baseline) ([1]; NAG 1.00 mg/ml): +289 ng/well
- HA (%) (Diff. from baseline) ([1]; NAG 1.50 mg/ml): +76.12%
- HA(ng/well) (Diff. from baseline) ([1]; NAG 1.50 mg/ml): +373 ng/well
- HA (%) (Diff. from baseline) ([1]; NAG 2.00 mg/ml): +78.78%
- HA(ng/well) (Diff. from baseline) ([1]; NAG 2.00 mg/ml): +386 ng/well
- HA (%) (Diff. from baseline) ([1]; NAG 2.50 mg/ml): +96.73%
- HA(ng/well) (Diff. from baseline) ([1]; NAG 2.50 mg/ml): +474 ng/well
- HA (%) from NAG (consistent doses) ([1]; NAG alone at 0.93 mg/ml (content of 1:3.5 combination)): ≈59%
- HA (%) from NAG (consistent doses) ([1]; NAG alone at 1.71 mg/ml (content of 1:0.5 combination)): +76.12-+78.8%
- Collagen (%) (Diff. from baseline) ([2]; NAG 0.50 mg/ml): +1.64%
- Collagen(μg/ml) (Diff. from baseline) ([2]; NAG 0.50 mg/ml): +0.07 μg/ml
- Collagen (%) (Diff. from baseline) ([2]; NAG 1.00 mg/ml): +30.28%
- Collagen(μg/ml) (Diff. from baseline) ([2]; NAG 1.00 mg/ml): +1.29 μg/ml
- Collagen (%) (Diff. from baseline) ([2]; NAG 1.50 mg/ml): +36.15%
- Collagen(μg/ml) (Diff. from baseline) ([2]; NAG 1.50 mg/ml): +1.54 μg/ml
- Collagen (%) (Diff. from baseline) ([2]; NAG 2.00 mg/ml): +32.86%
- Collagen(μg/ml) (Diff. from baseline) ([2]; NAG 2.00 mg/ml): +1.33 μg/ml
- Collagen (%) (Diff. from baseline) ([2]; NAG 2.50 mg/ml): +47.65%
- Collagen(μg/ml) (Diff. from baseline) ([2]; NAG 2.50 mg/ml): +2.03 μg/ml
- Expr. prot. from NAG % incr. over baseline ([3]; NAG 0.10 mg/ml, 24 hours): −14.6%
- Expr. prot. from NAG (mg/ml) - Mean +/− st. dev. ([3]; NAG 0.10 mg/ml, 24 hours): 0.70 ± 0.11 mg/mL
- Expr. prot. from NAG % incr. over baseline ([3]; NAG 0.10 mg/ml, 48 hours): −7.8%
- Expr. prot. from NAG (mg/ml) - Mean +/− st. dev. ([3]; NAG 0.10 mg/ml, 48 hours): 0.95 ± 0.08 mg/mL
- Expr. prot. from NAG % incr. over baseline ([3]; NAG 0.10 mg/ml, 72 hours): −6.4%
- Expr. prot. from NAG (mg/ml) - Mean +/− st. dev. ([3]; NAG 0.10 mg/ml, 72 hours): 1.03 ± 0.18 mg/mL
- Expr. prot. from NAG % incr. over baseline ([3]; NAG 0.50 mg/ml, 24 hours): +31.7%
- Expr. prot. from NAG (mg/ml) - Mean +/− st. dev. ([3]; NAG 0.50 mg/ml, 24 hours): 1.08 ± 0.29 mg/mL
- Expr. prot. from NAG % incr. over baseline ([3]; NAG 0.50 mg/ml, 48 hours): −9.7%
- Expr. prot. from NAG (mg/ml) - Mean +/− st. dev. ([3]; NAG 0.50 mg/ml, 48 hours): 0.93 ± 0.08 mg/mL
- Expr. prot. from NAG % incr. over baseline ([3]; NAG 0.50 mg/ml, 72 hours): +3.6%
- Expr. prot. from NAG (mg/ml) - Mean +/− st. dev. ([3]; NAG 0.50 mg/ml, 72 hours): 1.14 ± 0.16 mg/mL
- Expr. prot. from NAG % incr. over baseline ([3]; NAG 1.00 mg/ml, 24 hours): +35.4%
- Expr. prot. from NAG (mg/ml) - Mean +/− st. dev. ([3]; NAG 1.00 mg/ml, 24 hours): 1.11 ± 0.22 mg/mL
- Expr. prot. from NAG % incr. over baseline ([3]; NAG 1.00 mg/ml, 48 hours): −21.4%
- Expr. prot. from NAG (mg/ml) - Mean +/− st. dev. ([3]; NAG 1.00 mg/ml, 48 hours): 0.81 ± 0.11 mg/mL
- Expr. prot. from NAG % incr. over baseline ([3]; NAG 1.00 mg/ml, 72 hours): −5.5%
- Expr. prot. from NAG (mg/ml) - Mean +/− st. dev. ([3]; NAG 1.00 mg/ml, 72 hours): 1.04 ± 0.20 mg/mL
- Expr. prot. from NAG (mg/ml) - Mean +/− st. dev. ([3]; NAG 2.00 mg/ml, 24 hours): 1.24 ± 0.17 mg/mL
- Expr. prot. from NAG % incr. over baseline ([3]; NAG 2.00 mg/ml, 48 hours): +6.8%
- Expr. prot. from NAG (mg/ml) - Mean +/− st. dev. ([3]; NAG 2.00 mg/ml, 48 hours): 1.10 ± 0.20 mg/mL
- Expr. prot. from NAG % incr. over baseline ([3]; NAG 2.00 mg/ml, 72 hours): +0.91%
- Expr. prot. from NAG (mg/ml) - Mean +/− st. dev. ([3]; NAG 2.00 mg/ml, 72 hours): 1.11 ± 0.19 mg/mL
- activity of the enzyme hyaluronate synthetase [4]: stimulates
